In one assay the target is T1, PI3K alpha (Homo sapiens, UniProt P42336).
T1 construct: His tag (C); made in house; host or cells: baculovirus; Tn5 (Trichoplusia ni) or TiniPro insect cells
Kind of assay: Enzymatic PI3K alpha isoform inhibition (lipid kinase activity, Kinase-Glo). It is filed as biochemical. The conditions noted are these: enzymatic assay. As to the method: The kinase reaction is performed in a final volume of 50 μl per well of a half area COSTAR, 96 well plate. The final concentrations of ATP and phosphatidyl inositol in the assay are 5 μM and 6 μg/mL, respectively. The reaction is started by the addition of PI3 kinase, e.g. PI3 kinase δ.
(§1) In a more preferred assay, the kinase reaction is performed in a final volume of 10 μl per well of a low volume non-binding CORNING, 384 well black plate (Cat. No. #3676). The final concentrations of ATP and phosphatidyl inositol (PI) in the assay are 1 μM and 10 μg/mL, respectively. The reaction is started by the addition of ATP.
(§2) The components of the assay are added per well as follows:
(§3) 50 nl test compounds in 90% DMSO per well, in columns 1-20, 8 concentrations (1/3 and 1/3.33 serial dilution step) in single. • Low control: 50 nl of 90% DMSO in half the wells of columns 23-24 (0.45% in final). • High control: 50 nl of reference compound (e.g. compound of Example 7 in WO 2006/122806) in the other half of columns 23-24 (2.5 μM in final). • Standard: 50 nl of reference compound as just mentioned diluted as the test compounds in columns 21-22. • 20 mL ‘buffer’ are prepared per assay: • 200 μl of 1M TRIS HCl pH7.5 (10 mM in final) • 60 μl of 1M MgCl2 (3 mM in final) • 500 μl of 2M NaCl (50 mM in final) • 100 μl of 10% CHAPS (0.05% in final) • 200 μl of 100 mM DTT (1 mM in final) • 18.94 mL of nanopure water • 10 mL ‘PI’ are prepared per assay: • 200 μl of 1 mg/mL 1-alpha-Phosphatidylinositol (Liver Bovine, Avanti Polar Lipids Cat. No. 840042C MW=909.12) prepared in 3% OctylGlucoside (10 μg/mL in final) • 9.8 mL of ‘buffer’ • 10 mL ‘ATP’ are prepared per assay: • 6.7 μl of 3 mM stock of ATP giving a final concentration of 1 μM per well • 10 mL of ‘buffer’ • 2.5 mL of each PI3K construct are prepared per assay in ‘PI’ with the following final concentration: • 10 nM PI3K alfa EMV B1075 • 25 nM beta EMV BV949 • 10 nM delta EMV BV1060 • 150 nM gamma EMV BV950 • 5 μl of ‘PI/PI3K’ are added per well. • 5 μl ‘ATP’ are added per well to start the reaction. • The plates are then incubated at room temperature for 60 minutes (alfa, beta, delta) or 120 minutes (gamma). • The reaction is terminated by the addition of 10 μl Kinase-Glo (Promega Cat. No. #6714). • The assay plates are read after 10 minutes in Synergy 2 reader (BioTek, Vermont USA) with an integration time of 100 milliseconds and sensitivity set to 191. • Output: The High control is around 60'000 counts and the Low control is 30'000 or lower • This luminescence assay gives a useful Z′ ratio between 0.4 and 0.7
(§4) IC50 is determined by a four parameter curve fitting routine that comes along with “excel fit”. A four parameter logistic equation is used to calculate IC50 values (IDBS XLfit) of the percentage inhibition of each compound at 8 concentrations (usually 10, 3.0, 1.0, 0.3, 0.1, 0.030, 0.010 and 0.003 μM). Alternatively, IC50 values are calculated using idbsXLfit model 204, which is a 4 parameter logistic model.
(§5) Yet alternatively, for an ATP depletion assay, compounds of the formula I to be tested are dissolved in DMSO and directly distributed into a white 384-well plate at 0.5 μl per well. To start the reaction, 10 μl of 10 nM PI3 kinase and 5 μg/mL 1-alpha-phosphatidylinositol (PI) are added into each well followed by 10 μl of 2 μM ATP. The reaction is performed until approx 50% of the ATP is depleted, and then stopped by the addition of 20 μl of Kinase-Glo solution (Promega Corp., Madison, Wis., USA). The stopped reaction is incubated for 5 minutes and the remaining ATP is then detected via luminescence. IC50 values are then determined.
Background: In Kinase-Glo more light means more ATP remaining.

Another assay concerns the target T2, PI3K delta (Homo sapiens, UniProt O00329).
T2 construct: for the full-length p110-d subunit are generated and fused by overlapping PCR; His tag (C); made in house; host or cells: baculovirus; Tn5 (Trichoplusia ni) or TiniPro insect cells
In words: Enzymatic PI3K delta isoform inhibition (lipid kinase activity, Kinase-Glo). It is filed as biochemical. The settings on record: enzymatic assay. As to the method:
as §1, §2, §3, §4, §5

The text below walks through data of patent publication US20150148377A1, “Quinoline Derivatives” (NOVARTIS AG, priority 2011, published 2015).

Molecules are shown by their SMILES.

By IC50 is commonly meant the concentration that inhibits the measured activity by half.

T1 sequence (P42336 with tags, fused parts or gaps limits assumed): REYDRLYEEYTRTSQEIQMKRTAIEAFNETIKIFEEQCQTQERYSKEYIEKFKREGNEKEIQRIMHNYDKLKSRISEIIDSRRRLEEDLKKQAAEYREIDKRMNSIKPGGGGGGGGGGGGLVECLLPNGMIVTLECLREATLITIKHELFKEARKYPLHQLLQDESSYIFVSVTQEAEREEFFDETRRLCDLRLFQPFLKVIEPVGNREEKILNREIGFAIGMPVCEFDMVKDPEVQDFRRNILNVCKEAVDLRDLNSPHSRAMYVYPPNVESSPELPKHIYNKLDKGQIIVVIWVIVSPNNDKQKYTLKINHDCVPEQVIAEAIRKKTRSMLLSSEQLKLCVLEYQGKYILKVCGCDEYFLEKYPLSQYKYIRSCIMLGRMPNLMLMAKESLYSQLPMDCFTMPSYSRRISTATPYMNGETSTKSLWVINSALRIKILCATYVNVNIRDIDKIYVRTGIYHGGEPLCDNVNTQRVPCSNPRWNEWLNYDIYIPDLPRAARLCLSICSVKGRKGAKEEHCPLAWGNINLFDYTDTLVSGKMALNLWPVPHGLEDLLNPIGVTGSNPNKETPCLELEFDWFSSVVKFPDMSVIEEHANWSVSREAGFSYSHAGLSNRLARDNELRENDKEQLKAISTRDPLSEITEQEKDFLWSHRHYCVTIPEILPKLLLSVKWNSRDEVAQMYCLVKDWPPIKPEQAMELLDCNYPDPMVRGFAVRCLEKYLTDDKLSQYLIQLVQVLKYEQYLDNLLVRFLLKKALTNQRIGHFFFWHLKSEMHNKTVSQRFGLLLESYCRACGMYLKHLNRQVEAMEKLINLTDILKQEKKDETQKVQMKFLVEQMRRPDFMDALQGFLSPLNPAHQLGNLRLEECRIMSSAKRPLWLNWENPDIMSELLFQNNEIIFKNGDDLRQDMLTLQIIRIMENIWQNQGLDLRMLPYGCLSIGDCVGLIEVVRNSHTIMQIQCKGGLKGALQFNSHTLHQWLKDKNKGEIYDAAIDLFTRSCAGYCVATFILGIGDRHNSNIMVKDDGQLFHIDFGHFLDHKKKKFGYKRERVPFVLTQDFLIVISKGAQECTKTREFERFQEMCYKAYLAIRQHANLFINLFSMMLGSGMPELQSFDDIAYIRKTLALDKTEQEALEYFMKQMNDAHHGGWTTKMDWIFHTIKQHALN
T2 sequence (O00329 with tags, fused parts or gaps limits assumed): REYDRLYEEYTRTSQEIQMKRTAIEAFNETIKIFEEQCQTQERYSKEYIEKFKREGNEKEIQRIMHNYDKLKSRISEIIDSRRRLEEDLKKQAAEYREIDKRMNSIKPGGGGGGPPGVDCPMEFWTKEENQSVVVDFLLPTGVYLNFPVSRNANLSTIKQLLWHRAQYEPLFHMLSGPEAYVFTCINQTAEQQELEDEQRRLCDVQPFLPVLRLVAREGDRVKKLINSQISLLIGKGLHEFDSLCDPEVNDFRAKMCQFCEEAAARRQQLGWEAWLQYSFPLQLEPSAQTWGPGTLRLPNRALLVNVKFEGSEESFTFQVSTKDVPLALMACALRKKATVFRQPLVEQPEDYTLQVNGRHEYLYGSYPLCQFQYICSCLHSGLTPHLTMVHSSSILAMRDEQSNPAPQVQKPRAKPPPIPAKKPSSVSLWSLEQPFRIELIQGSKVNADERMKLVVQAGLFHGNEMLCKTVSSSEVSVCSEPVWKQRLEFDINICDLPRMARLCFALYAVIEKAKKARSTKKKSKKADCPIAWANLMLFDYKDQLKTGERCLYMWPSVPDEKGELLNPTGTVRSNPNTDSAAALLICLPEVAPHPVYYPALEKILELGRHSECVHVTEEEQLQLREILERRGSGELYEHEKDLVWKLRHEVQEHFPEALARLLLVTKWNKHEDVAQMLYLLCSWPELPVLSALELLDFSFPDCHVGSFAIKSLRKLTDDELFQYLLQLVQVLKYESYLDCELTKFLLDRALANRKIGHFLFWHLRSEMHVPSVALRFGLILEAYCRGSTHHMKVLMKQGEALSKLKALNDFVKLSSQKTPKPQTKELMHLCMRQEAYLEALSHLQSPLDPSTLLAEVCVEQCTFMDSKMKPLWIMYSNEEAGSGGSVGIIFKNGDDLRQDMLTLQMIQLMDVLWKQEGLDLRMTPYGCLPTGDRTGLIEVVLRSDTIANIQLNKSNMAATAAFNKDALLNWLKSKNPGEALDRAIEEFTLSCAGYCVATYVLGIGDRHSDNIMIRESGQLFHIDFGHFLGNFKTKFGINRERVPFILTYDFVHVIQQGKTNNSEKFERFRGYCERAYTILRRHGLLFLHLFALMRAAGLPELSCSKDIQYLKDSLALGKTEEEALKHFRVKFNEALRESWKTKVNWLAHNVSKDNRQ

With `COc1ncc(-c2ccnc3ccc(O[C@H]4CCN(C(=O)C5CCOCC5)C4)c(C)c23)cc1C#N` [Example B8, 2-Methoxy-5-{5-methyl-6-[(S)-1-(tetrahydro-pyran-4-carbonyl)-pyrrolidin-3-yloxy]-quinolin-4-yl}-nicotinonitrile], the IC50 on PI3K alpha turned out to be 1440 nM; at PI3K delta, 60 nM.

Regarding `COc1ncc(-c2ccnc3ccc(O[C@H]4CCN(C(=O)c5cn(C)cn5)C4)cc23)cc1C` [Example A39, {(S)-3-[4-(6-Methoxy-5-methyl-pyridin-3-yl)-quinolin-6-yloxy]-pyrrolidin-1-yl}-(1-methyl-1H-imidazol-4-yl)-methanone], the figures for the IC50 on PI3K alpha and on PI3K delta were 189 nM and 71 nM, respectively.

For `COc1ncc(-c2ccnc3ccc(O[C@H]4CCN(C(=O)C5CCOCC5)C4)cc23)cc1C(F)(F)F` [Example A7, {(S)-3-[4-(6-Methoxy-5-trifluoromethyl-pyridin-3-yl)-quinolin-6-yloxy]-pyrrolidin-1-yl}-(tetrahydro-pyran-4-yl)-methanone], the values for the IC50 at PI3K alpha and at PI3K delta were 96 nM and 4 nM, respectively.

For `COc1ncc(-c2ccnc3ccc(O[C@H]4CCN(C(=O)C5CCN(C(C)=O)CC5)C4)cc23)cc1C(F)(F)F` [Example A16, 1-(4-{(S)-3-[4-(6-Methoxy-5-trifluoromethyl-pyridin-3-yl)-quinolin-6-yloxy]-pyrrolidine-1-carbonyl}-piperidin-1-yl) ethanone], the IC50 at PI3K alpha turned out to be 207 nM; at PI3K delta, 7 nM.

On to `COc1ncc(-c2ccnc3ccc(O[C@H]4CCN(C(=O)C5CCS(=O)(=O)CC5)C4)c(C)c23)cc1CF` [Example B6, (1,1-Dioxo-hexahydro-1lambda*6*-thiopyran-4-yl)-{(S)-3-[4-(5-fluoromethyl-6-methoxy-pyridin-3-yl)-5-methyl-quinolin-6-yloxy]-pyrrolidin-1-yl}-methanone], for which the values for the half-inhibitory concentration (IC50) at PI3K alpha and at PI3K delta were 294 nM and 12 nM, respectively.

`COc1ncc(-c2ccnc3ccc(O[C@H]4CCN(C(=O)C5CCS(=O)(=O)CC5)C4)cc23)cc1C(F)(F)F` [Example A8, (1,1-Dioxo-hexahydro-1lambda*6*-thiopyran-4-yl)-{(S)-3-[4-(6-methoxy-5-trifluoromethyl-pyridin-3-yl)-quinolin-6-yloxy]-pyrrolidin-1-yl}-methanone]: the IC50 was determined as 131 nM on PI3K alpha and 4 nM on PI3K delta.

Consider `COc1ncc(-c2ccnc3ccc(O[C@H]4CCN(C(=O)c5ccc(=O)n(C)c5)C4)cc23)cc1C` [Example A32, 5-{(S)-3-[4-(6-Methoxy-5-methyl-pyridin-3-yl)-quinolin-6-yloxy]-pyrrolidine-1-carbonyl}-1-methyl-1H-pyridin-2-one], for which the values for the half-maximal inhibitory concentration (IC50) on PI3K alpha and on PI3K delta were 851 nM and 21 nM, respectively.

For `COc1ncc(-c2ccnc3ccc(O[C@H]4CCN(C(=O)C5CCS(=O)(=O)CC5)C4)cc23)cc1C#N` [Example A22, 5-{6-[(S)-1-(1,1-Dioxo-hexahydro-1lambda*6*-thiopyran-4-carbonyl)-pyrrolidin-3-yloxy]-quinolin-4-yl}-2-methoxy-nicotinonitrile], the figures for the half-inhibitory concentration (IC50) on PI3K alpha and at PI3K delta were 364 nM and 8 nM, respectively.

As to `CS(=O)(=O)c1ncc(-c2ccnc3ccc(O[C@H]4CCN(C(=O)C5CCOCC5)C4)cc23)cc1Cl` [Example A28, {(S)-3-[4-(5-Chloro-6-methanesulfonyl-pyridin-3-yl)-quinolin-6-yloxy]-pyrrolidin-1-yl}-(tetrahydro-pyran-4-yl)-methanone], the IC50 amounted to 1390 nM on PI3K alpha and 14 nM on PI3K delta.

For the compound `COc1ncc(-c2ccnc3ccc(O[C@H]4CCN(C(=O)C5CCS(=O)(=O)CC5)C4)cc23)cc1F` [Example A4, (1,1-Dioxo-hexahydro-1lambda*6*-thiopyran-4-yl)-{(S)-3-[4-(5-fluoro-6-methoxy-pyridin-3-yl)-quinolin-6-yloxy]-pyrrolidin-1-yl}-methanone], the IC50 on PI3K alpha came to 128 nM; on PI3K delta, 3 nM.

As for `CC(=O)N1CC[C@@H](C(=O)N2CC[C@H](Oc3ccc4nccc(-c5cnc(OC(F)F)c(C)c5)c4c3C)C2)C1` [Example B7, 1-((R)-3-{(S)-3-[4-(6-Difluoromethoxy-5-methyl-pyridin-3-yl)-5-methyl-quinolin-6-yloxy]-pyrrolidine-1-carbonyl}-pyrrolidin-1-yl)-ethanone], the half-maximal inhibitory concentration (IC50) at PI3K alpha is 869 nM; at PI3K delta it was 20 nM.

As for `COc1ncc(-c2ccnc3ccc(O[C@H]4CCN(C(=O)C5CCN(C(C)=O)CC5)C4)cc23)cc1C` [Example A27, 1-(4-{(S)-3-[4-(6-Methoxy-5-methyl-pyridin-3-yl)-quinolin-6-yloxy]-pyrrolidine-1-carbonyl}-piperidin-1-yl)-ethanone], the IC50 on PI3K alpha turned out to be 543 nM; on PI3K delta, 14 nM.

With `CCC(=O)N1CC[C@H](Oc2ccc3nccc(-c4cnc(OC)c(C)c4)c3c2)C1` [Example A2, 1-{(S)-3-[4-(6-Methoxy-5-methyl-pyridin-3-yl)-quinolin-6-yloxy]-pyrrolidin-1-yl}-propan-1-one], the IC50 at PI3K alpha is 264 nM; at PI3K delta, less than 3 nM.

As to `CS(=O)(=O)c1ncc(-c2ccnc3ccc(O[C@H]4CCN(C(=O)C5CCOCC5)C4)cc23)cc1CF` [Example A20, {(S)-3-[4-(5-Fluoromethyl-6-methanesulfonyl-pyridin-3-yl)-quinolin-6-yloxy]-pyrrolidin-1-yl}-(tetrahydropyran-4-yl)-methanone], the IC50 at PI3K alpha is 543 nM; on PI3K delta, 7 nM.

Consider `CCC(=O)N1CC[C@H](Oc2ccc3nccc(-c4cnc(OC)c(C#N)c4)c3c2)C1` [Example A18, 2-Methoxy-5-[6-((S)-1-propionyl-pyrrolidin-3-yloxy)-quinolin-4-yl]-nicotinonitrile], for which the IC50 at PI3K alpha was determined as 613 nM; on PI3K delta it was 7 nM.

Consider `Cc1cc(-c2ccnc3ccc(O[C@H]4CCN(C(=O)C5CCOCC5)C4)c(C)c23)cnc1S(C)(=O)=O` [Example B5, {(S)-3-[4-(6-Methanesulfonyl-5-methyl-pyridin-3-yl)-5-methyl-quinolin-6-yloxy]-pyrrolidin-1-yl}-(tetrahydro-pyran-4-yl)-methanone], for which the half-maximal inhibitory concentration (IC50) came to 664 nM on PI3K alpha and 11 nM on PI3K delta.

For the compound `COc1ncc(-c2ccnc3ccc(O[C@H]4CCN(C(=O)C5CCOCC5)C4)cc23)cc1C#N` [Example A3, 2-Methoxy-5-{6-[(S)-1-(tetrahydro-pyran-4-carbonyl)-pyrrolidin-3-yloxy]-quinolin-4-yl}-nicotinonitrile], the values for the 50% inhibitory concentration (IC50) on PI3K alpha and on PI3K delta were 426 nM and 3 nM, respectively.

Consider `COc1ncc(-c2ccnc3ccc(O[C@H]4CCN(C(=O)c5ccc(=O)[nH]c5)C4)cc23)cc1C(F)(F)F` [Example A19, 5-{(S)-3-[4-(6-Methoxy-5-trifluoromethyl-pyridin-3-yl)-quinolin-6-yloxy]-pyrrolidine-1-carbonyl}-1H-pyridin-2-one], for which the IC50 at PI3K alpha came out at 85 nM; on PI3K delta, 7 nM.
